Results from patent US6746667B2, “Adhesive treatment for tinea pedis” (Closure Medical Corporation, priority 2001, dated 2004).

Test: observation of haloprogin / 2-octyl cyanoacrylate monomer composition after preparation
Format: physicochemical
Conditions: 30 mg in 2 mL 2-octyl cyanoacrylate monomer; about one minute and at least twenty-four hours after preparation
Experimental: A 2-octyl cyanoacrylate monomer composition is prepared by adding 30 mg of haloprogin, an anti-fungal agent, to 2 mL of 2-octyl cyanoacrylate monomer. The mixture is sealed in a glass vial and stirred. The characteristics of the composition are observed at about one minute after preparation and later at least twenty-four hours after preparation.

premature polymerization of the monomer (stability): does not cause premature polymerization
solubility in the monomer: soluble in the monomer
Structure (SMILES): Clc1cc(Cl)c(OCC#CI)cc1Cl [haloprogin]
